Assays:
[1] = tested on: filaggrin; test: Filaggrin expression by indirect immunofluorescence on skin biopsies; format: cell-based, human; conditions: positive control, concentration not given
Method: Filaggrin is a protein involved in the cohesion and maintenance of the hydration of the upper layer of the epidermis, which is essential for maintaining the homeostasis of the skin barrier.
Filaggrin expression was assessed by indirect immunofluorescence on skin biopsies, pre-treated by topical application of the solubilised extract of depleted sandalwood from Example 1, diluted in 0.1% octyldodecanol (volume/volume percentages, twice daily), for 48 hours. In parallel, biopsies were treated with a sandalwood essential oil of Example 3 from the same geographical site and tested under the same conditions. Control biopsies incubated in parallel under the same conditions were given the placebo (octyldodecanol). After incubation, the biopsies were fixed and embedded in paraffin for histological sections. Detection of filaggrin was performed by incubation with anti-filaggrin antibody (Santa Cruz). After one and a half hours of incubation followed by rinses, the sections were incubated in the presence of the anti-mouse secondary antibody coupled to a fluorophore (Alexa Fluor® 488, Invitrogen). The sections were then examined under an Epi-fluorescence microscope (Zeiss Axiovert 200M microscope). Filaggrin expression was then observed and quantified by image analysis (Volocity® image analysis software, Improvision).

[2] = tested on: olfactory receptor OR2AT4; test: OR2AT4 expression by indirect immunofluorescence on human skin biopsies; format: cell-based
Method: OR2AT4 expression was assessed by indirect immunofluorescence on skin biopsies, pre-treated by topical application of the solubilised extract of depleted sandalwood of Example 1 at 0.1%, 0.5% and 1% (volume/volume percentages), for 48 hours (twice daily). For this purpose, the solubilised extract of depleted sandalwood from Example 1 was diluted in 0.1%, 0.5% and 1% (volume/volume percentages) octyldodecanol. Other biopsies were given similar dilutions of sandalwood essential oil from Example 3 or a synthetic analogue Sandalore. Control biopsies incubated in parallel under the same conditions received placebo (octyldodecanol). After incubation, the biopsies were fixed and embedded in paraffin for histological sections. Detection of the OR2AT4 receptor was performed by incubation with anti-OR2AT4 antibody (Novus). After one and a half hours of incubation followed by rinses, the sections are incubated in the presence of the anti-rabbit secondary antibody coupled to a fluorophore (Alexa Fluor® 488, Invitrogen). The sections were then examined under an Epi-fluorescence microscope (Zeiss Axiovert 200M microscope). OR2AT4 expression was then observed and quantified by image analysis (Volocity® image analysis software, Improvision).

OR2AT4 expression increase ([2]; 1% (v/v) in octyldodecanol, topical, twice daily, 48 hours, vs placebo)	OR2AT4 expression increase ([2]; 3% topical application)	OR2AT4 expression increase ([2]; 5% topical application)	effect on OR2AT4 expression ([2]; application of less than 1%)	Structure (SMILES)	increase in filaggrin [1]
–	–	–	–	O=C(O[C@@H]1Cc2c(O)cc(O)cc2O[C@@H]1c1cc(O)c(O)c(O)c1)c1cc(O)c(O)c(O)c1 [EGCG, epigallocatechin gallate]	+27%
28%	72%	71%	does not seem to have any effect	CC1=CCC(CCC(C)C(C)O)C1(C)C (centres unmarked) [Sandalore]	–
